Results on one molecule are retold here after ChEMBL document CHEMBL4007446, “Synthesis and biological evaluations of chalcones, flavones and chromenes as farnesoid x receptor (FXR) antagonists” (Eur J Med Chem, 2017).

For this assay, the target named is T1, Bile acid receptor (Homo sapiens, UniProt Q96RI1).
T1 sequence (Q96RI1 whole entry): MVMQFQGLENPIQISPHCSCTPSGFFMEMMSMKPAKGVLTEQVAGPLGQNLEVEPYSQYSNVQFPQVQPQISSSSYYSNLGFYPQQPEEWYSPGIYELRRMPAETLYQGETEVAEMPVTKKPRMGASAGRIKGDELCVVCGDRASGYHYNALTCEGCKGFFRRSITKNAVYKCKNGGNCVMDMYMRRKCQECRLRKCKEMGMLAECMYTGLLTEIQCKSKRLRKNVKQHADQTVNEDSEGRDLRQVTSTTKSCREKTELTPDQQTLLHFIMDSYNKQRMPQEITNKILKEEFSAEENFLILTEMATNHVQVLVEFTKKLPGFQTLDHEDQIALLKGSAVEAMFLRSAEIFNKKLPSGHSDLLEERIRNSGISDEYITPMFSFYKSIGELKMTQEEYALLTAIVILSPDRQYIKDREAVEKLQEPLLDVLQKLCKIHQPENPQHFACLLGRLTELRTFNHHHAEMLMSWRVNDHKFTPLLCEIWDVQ
Kind of assay: Antagonist activity at human FXR expressed in COS1 cells assessed as inhibition of CDCA-induced receptor activation after 2 days by luciferase reporter gene assay. It counts as cell-based.

Molecules are shown by their SMILES.

Regarding `CC(C)(C)n1ncc(C(=O)Nc2ccc3cnn(CC4CCN(c5ccc(C(=O)O)cc5)CC4)c3c2)c1-c1ccc(F)cc1`, the IC50 was found to be 1 nM.
